Here are results for four compounds from patent publication US9877681B2, ““Micro-patch” for assessment of the local microvasculature and microcirculatory vasoreactivity” (priority 2007, dated 2018).

Series [1] relates to local microvasculature (forehead). The note with it: scopolamine applied with/before nicotine, FIG. 18.
For series [2] the test system is unchanged. How it is done:
Prior to the customization of nitroglycerin according to the present invention, nicotine was customized in accordance with the purposes of present invention. This entailed customization of a commercially available clear NICODERM patch, nicotine delivery patch, (with 0.83 mg of nicotine/cm^2). Again, lesser or higher concentrations may be used for a micro-patch; these are not currently available, since currently available nicotine patches delivery a fixed dose/cm^2 patch such that a higher systemic dose is obtained by using a larger patch.
The preliminary investigations with nicotine micro-patches (0.83 mg/cm^2) entailed customizing a section of the micro-patch so that it adhered to an area of skin that was sufficient to deliver drug to the area under a laser Doppler flowmetry probe and that enabled attachment of the laser Doppler flowmetry probe to an upper surface of the micro-patch.

Series [3] relates to local microvasculature (finger). Put plainly: Micro-patch applied to the finger, laser Doppler flowmetry. The format is in vivo, human.
Description: The difference likewise is seen in results generated by a laser Doppler scanner (discussed below).
The test system of series [4] is local microvasculature (forehead). Description: Laser Doppler scanner imaging of micro-patch sites on the forehead. The format is in vivo, human. Conditions: several minutes after application, FIGS. 22-24. An excerpt: Another alternative is provided by the laser Doppler scanning imager. […] [Wardell K, Braverman I M, Silverman D G, Nilsson G E: Spatial heterogeneity in normal skin perfusion recorded with laser Doppler imaging and flowmetry. Microvascular Research 48(1):26-38, 1994 July]. […] This is accomplished by rapidly scanning an area by a shifting light that is sequentially directed to successive study sites by a mirror. […] This is because the laser Doppler scanner typically monitors a given site for fractions of a second. […] Compromises include rapidly scanning all sites at repeat intervals for a long enough period to overcome the effects of pulsations and oscillations. However, a relatively long interval is required to ensure this. Thus, the laser Doppler scanner mitigates spatial variability at the expense of temporal variability (e.g., beat-to-pulsations with each heart beat as well as oscillations in activity as a component of autonomic regulation of blood vessels).

The test system of series [5] is local microvasculature (finger). Put plainly: Laser Doppler scanner imaging of micro-patch sites on the fingers. The format is in vivo, human. The note with it: FIG. 25. An excerpt: Nitroglycerin induces vasodilation independent of the parasympathetic pathways. […] Anesthesiology 2004;101:A246] and phenylephrine [Silverman D G, Stout R G: Distinction between atropine-sensitive control of microvascular and cardiac oscillatory activity. Microvasc Res 63:196-208, 2002].

Series [6] relates to local microvasculature. Put plainly: Fast Fourier transformation (FFT) of signals at micro-patch sites. The series is classed as in vivo, human.
Description: This leads to present disclosure of a means to overcome the potential confusion: I herein introduce the application of spectral domain analysis [fast Fourier transformation (FFT), alluded to above, and variations thereof such as joint time frequency)] to characterize PTT values. This enables comparative assessment of: FFT of PTTPPG (primarily influenced by arrival of the stroke volume at underlying artery), FFT of PTTlaserDoppler (arrival of stroke volume at microvasculature), and FFT of PTTPPG-LaserDoppler.
Once combined monitoring becomes available at a given site, and then concurrent FFT analysis of PTT of artery, acv and vein will enable one to delineate the sites of microvascular and neuro-microvascular activity. In addition to micro-patch induced changes in readings between sites of measurement (e.g. PTT), we can also measure changes at sites of measurement (e.g., mean, heights). Again, confounders such as different units and differing criteria for onset may be avoided with FFT.
Series [7] relates to local microvasculature (forehead). Description: Study B: acetylcholine and nitroglycerin micro-patches, laser Doppler flowmetry of forehead perfusion in healthy volunteers. The note with it: for increase in laser Doppler flowmetry readings, mean (95% CI): 10 healthy volunteers, forehead, plateau vs baseline; for time to marked rise in laser Doppler flowmetry voltage (flux) after drug application: each healthy volunteer; for blood flow at the micro-patch site, representative tracings: one healthy subject, FIG. 19. The series is classed as in vivo, human. From the text:
(§1) Mixing was accomplished to achieve a final product that was smooth and free of abrasive particles. Based on trial and error testing, it was elected to pursue testing with acetylcholine chloride powder dissolved in water for placement on an adherent surface (e.g., clear tape). […] This dose is proportional to doses of MIOCHOL-E,™ (that is, a clinically available acetylcholine preparation that is used to produce papillary constriction (miosis) during cataract surgery) that had been tested in preliminary trials. However, the agent used for micro-patches can be superconcentrated compared to the solution used for intraocular injection—made possible because of the small delivery area.
The dry side of the acetylcholine “micro-patch” was adhered to the end of a laser Doppler flowmetry probe (a PF 5010 with Probe Model 407, Perimed, Sweden in accordance with a preferred embodiment) (see FIGS. 1 and 2). A sham drug micro-patch was made in the same way with 0.02-mL of HPLC-grade water instead of acetylcholine solution. Before micro-patch application, a DOUBLE-STICK DISC™ (3M Health Care, Neuss, Germany) (that is, the double-sided adhesive ring 6 discussed above) with an overall diameter of 38.1-mm and a central hole (or opening) diameter of 8.7-mm is placed at the site to be tested. The double-sided adhesive ring 6 serves as an adherent base onto which a monitor such as a laser Doppler flowmetry probe 1 is placed as well as to define the area (59.4-mm^2) for drug application. In addition to providing for targeted adherence, when placed between the micro-patch 2 and the study surface (as shown in FIG. 1) this further limits the area of drug delivery by providing a barrier to drug delivery from the outer regions of the micro-patch 2. As detailed below, this delivered as much as 10% of that used to constrict the pupil during cataract surgery Dose-response curve can be assessed with serial dilutions. […] Laser Doppler flowmetry is an exemplary form of potential monitoring (used in each of the Table 2 studies).
The creation of a nitroglycerin micro-patch so as to enable concurrent monitoring of an endothelium-dependent transdermal preparation (acetylcholine, described above) and an endothelium-independent vasodilator (nitroglycerin) is simpler than the creation of the acetylcholine micro-patch. […] The present invention provides not only for the application of the disclosed method for monitoring the local circulation but the tailoring of the micro-patch to ensure effective delivery throughout the monitoring site while avoiding delivery of excess drug that might predispose to remote and/or systemic effects. For a single laser Doppler flowmetry probe, the nitroglycerin micro-patch may be obtained by using a standard hole-punch to cut a 6-mm diameter (28.3-mm^2 area) section of a full size 0.6 mg/hr MINITRAN™ nitroglycerin patch (3M, Minnesota). Alternatively, for applications where one wishes to move the laser Doppler flowmetry probe so as to encompass a larger area (as with the inventive assembly in FIG. 16), a small rectangle may be appropriate. Such patches are designed for homogeneous delivery of drug at a rate of 0.03-mg/hour per 100-mm^2 area of patch, such that the section used in the inventive micro-patch delivered at a rate of approximately 0.008-mg/hr. Although not currently available, lesser or higher concentrations of nitroglycerin may be used for micro-patches, pending dose response studies to confirm local efficacy and lack of systemic effects. The nitroglycerin micro-patch then is placed onto a double-sided adhesive ring for adherence to a monitoring probe (see FIGS. 1 and 2) or it may be placed on the tissue under an elevated support assembly 131 or scanner (described below).
Methods: For each session, subjects lay on a bed in a semi-recumbent position in a temperature-controlled room (24+1° C.). A three-lead electrocardiogram and a noninvasive brachial artery blood pressure cuff were applied. […]

The test system is the same in series [8]. Description: Study B: acetylcholine and nitroglycerin micro-patches, laser Doppler flowmetry of forehead perfusion in patients with diabetes. Conditions: 10 diabetic patients with retinopathy. The series is classed as in vivo, human. As for the experimental part:
Methods: For each session, subjects lay on a bed in a semi-recumbent position in a temperature-controlled room (24+1° C.). A three-lead electrocardiogram and a noninvasive brachial artery blood pressure cuff were applied. The three laser Doppler flowmetry probes with customized acetylcholine, nitroglycerin, and placebo micro-patches (as described above) attached were adhered onto the three double-stick discs on the forehead so as to enable undisturbed monitoring and drug delivery. Laser Doppler flowmetry monitoring was performed continuously at each site until a vasodilatory plateau was maintained for ≧3 minutes or for a maximum of 20 minutes. Data were collected at a rate of 1000 Hz using Chart for Windows (ADlnstruments, Colorado Springs, Colo.).
The local microvascular effects of transdermal acetylcholine and nitroglycerin were first tested in 10 healthy volunteers (7 males, 3 females; mean age 36.1, range 19 to 56 years) without vascular disease or diabetes. […]
An investigator blinded to the status of the subject and to the nature of the study site assessed the laser Doppler tracing at each study site. […] The effects of the single dose of acetylcholine was compared to the single dose of nitroglycerin in the healthy volunteers, with the differences analyzed using Wilcoxon Signed Rank Test (WSRT). […]

The test system of series [9] is forehead blood flow. Description: Non-iontophoretic transdermal acetylcholine at the forehead, laser Doppler flowmetry (Table 2). The note with it: Silverman, <0.25 ml of 1%, inc. The series is classed as in vivo, human.
Description: as §1
The dry side of the acetylcholine “micro-patch” was adhered to the end of a laser Doppler flowmetry probe (a PF 5010 with Probe Model 407, Perimed, Sweden in accordance with a preferred embodiment) (see FIGS. 1 and 2). A sham drug micro-patch was made in the same way with 0.02-mL of HPLC-grade water instead of acetylcholine solution. […] As detailed below, this delivered as much as 10% of that used to constrict the pupil during cataract surgery Dose-response curve can be assessed with serial dilutions. […]

The subject of series [10] is forearm blood flow. Conditions: Iontophoresis, inc, cited from earlier work.
The subject of series [11] is local microvasculature (forehead). Put plainly: Study D: impact of fatty meal on responses to nitroglycerin and acetylcholine micro-patches. The format is in vivo, human. Conditions: 10 minutes after patch application. How it is done: Two hours later, subjects underwent application of acetylcholine and nitroglycerin micro-patches. As described above, the former was prepared by mixing 100 mg of solid acetylcholine with […] of sterile water. From this solution (concentration of 14.3 mg/ml) we used an aliquot of just under 0.14 ml (less than 10% of the standard 20 mg dose injected into the eye during cataract surgery). The latter consisted of a 1.4 cm×1.4 cm translucent square (cut from a full-sized nitroglycerin patch) to delivery 0.008 mg/hr of nitroglycerin to the study site. Before each patch application, seven sites of the forehead were monitored with a commercially available integrating laser Doppler flowmetry probe that averages the output from several closely packed light-transmitting channels (to partially overcome spatial heterogeneity). At 10 minutes after patch application, readings were repeated. Changes were analyzed using paired t-test.

Structures are written as SMILES. Entries after “also recorded” stand apart in the source; their conditions may differ. Where two headings read alike, the source gives them in different places.

Take `CN1[C@@H]2C[C@@H](OC(=O)[C@H](CO)c3ccccc3)C[C@H]1[C@@H]1O[C@@H]12` [scopolamine]: the “effect of scopolamine on the nicotine-induced increase in perfusion” value in series [1] is “blunted; also recorded: inhibition”.
With `CN1CCCC1c1cccnc1` (stereo not drawn) [nicotine], the “increase in flow at the active site” value in [2] (button-sized translucent micro-patch, forehead of seven healthy subjects) came out at 388.4%. Also, in series [2] (drug delivery limited to the micro-patch), the “response at a remote site or in systemic indices (heart rate, blood pressure, flow at other sites)” value was “no response”. Besides, in series [2] (forehead, between 5 and 15 minutes after application, FIG. 17), the “flow at the nicotine site relative to baseline (laser Doppler flowmetry)” value was “approximately 300 % of baseline”. In addition, in series [2] (transdermal application at the forehead, within 30 min), the “increase in local blood flow” value is recorded as 2-5 fold. In addition, the “local microvasculature's response to the micro-patch” value in series [2] (transdermal micro-patch) is “vasodilation”. In series [3], the “change in flow when applied to the finger” value is “no significant change”. Also, the “relative blood flow at the micro-patch site (laser Doppler scanner)” value (“relative blood flow” below) in series [4] is listed as “increase in relative blood flow; also recorded: caused vasodilation; also recorded: greatest flow”. For the same compound, the “flow at the micro-patch site (laser Doppler scanner)” value in series [5] is reported as “lack of increased flow”. In addition, the “change in the 0.03-0.12 Hz frequency range by FFT” value in [6] (0.03-0.12 Hz) is “marked increase”. The “oscillatory activity at micro-patch site by FFT” value in [6] (in vivo) is listed as “marked oscillatory activity”.
Turning to `CC(=O)OCC[N+](C)(C)C.[Cl-]` [acetylcholine, acetylcholine chloride], in series [7], the “increase in laser Doppler flowmetry readings, mean (95% CI)” value is reported as 406% (245%-566%); the “time to marked rise in laser Doppler flowmetry voltage (flux) after drug application” value is given as “two”; the “blood flow at the micro-patch site, representative tracings” value is “Prompt increases in blood flow”. The “change in systemic blood pressure and heart rate” value in series [7] (human, in vivo) is on record as “lack of significant change”. For the same compound, in series [8], the “mean percent increase in blood flow (95% CI)” value is recorded as 156% (91%-221%). In series [4], the “relative blood flow” value is “increase in relative blood flow; also recorded: increased blood flow”. The “Change in Blood Flow” value in [9] is 50-250%. In addition, in series [10] (Morris, approx 0.25 ml of 1%), the “Change in Blood Flow” value is listed as 50-100%. Also, the “Change in Blood Flow” value in series [10] (Noon, approx 0.25 ml of 2%) was 1000%.
`O=[N+]([O-])OCC(CO[N+](=O)[O-])O[N+](=O)[O-]` [nitroglycerin]: the “change in flow when applied to the finger” value in series [3] was “significant change”. In series [7], the “increase in laser Doppler flowmetry readings, mean (95% CI)” value was 365% (179%-550%); the “time to marked rise in laser Doppler flowmetry voltage (flux) after drug application” value was “two”; the “blood flow at the micro-patch site, representative tracings” value is reported as “Prompt increases in blood flow”. In addition, the “change in systemic blood pressure and heart rate” value in series [7] (healthy volunteers) was “lack of significant change”. The “mean percent increase in blood flow (95% CI)” value in [8] is 116% (79%-153%). In addition, the “nitroglycerin/acetylcholine ratio of induced increase” value in series [11] (two hours after fat-laden meal) is given as 1.31. The “nitroglycerin/acetylcholine ratio of induced increase” value in [11] (two hours after nonfat meal) came out at 0.94. Moreover, in series [4], the “relative blood flow” value is on record as “increase in relative blood flow; also recorded: caused vasodilation; also recorded: Increased flow”. Moreover, in series [5], the “flow at the micro-patch site (laser Doppler scanner)” value was “induced vasodilation; also recorded: flow increased”.
